Assay results reported in the pKa sets of Baltruschat and Czodrowski (2020).
Where a SMILES comes first, the peptide text is derived from it.

settings: acidic group

Structure (SMILES) | pKa
CCc1nnc(CC)n1N | 9.77
Cn1nc(-c2ccccc2)cc1O | 10.9
C[NH+](C)CCc1ccc(O)cc1 | 9.46
CCc1ccc(C(C)C)cc1O | 10.6
[NH3+]c1cccc(C(=O)O)c1 | 3.09
O=C(O)[C@@H]1CSC[NH2+]1 | 1.58
CCCC1(Br)C(=O)NC(=O)NC1=O | 6.6
O=C(O)CCC(=O)c1ccc2ccccc2c1 | 4.96
C[NH+]1[C@H]2CC=C(C(=O)O)[C@@H]1CC2 | 3.93
CN(C)c1ccc(NC(=O)/C=N/O)cc1 | 9.26
O=[N+]([O-])c1cc(Cl)ccc1O | 3.5
C[C@H](C1CC1C(=O)O)[C@H]1CC[C@H]2[C@@H]3[C@@H](O)C[C@@H]4C[C@H](O)CC[C@]4(C)[C@H]3CC[C@]12C (stereo partly drawn) | 5.01
C/C=C(\C(=O)O)c1ccc([N+](=O)[O-])cc1 | 5
Cc1ccc(C(=O)O)o1 | 3.42
O=[Se](O)c1ccc(-c2ccccc2)cc1 | 4.53
O=C1C=Cc2ccccc2/C1=N\O | 7.77
Cc1ccc(C(=O)/C=C/C(=O)O)cc1 | 3.44
Cc1cc(O)n[nH]1 | 10.9
CC(C)(C)CCCCc1ccc(O)cc1 | 11.2
Cc1ncc(CO)c(CO)c1O | 8.98
C/C(=N\O)NO | 10.8
O=C(O)CCCCc1ccccc1 | 4.88
CCCCCOc1ccc(C(=O)O)cc1 | 4.49
N#Cc1cccc(-c2nnn[nH]2)c1 | 3.45
O=P([O-])(O)C([NH2+]Cc1ccccn1)c1ccccc1O (stereo not drawn) | 5.15
O=P([O-])(O)C([NH2+]Cc1ccncc1)c1ccccc1O (stereo not drawn) | 5.2
C[N+](C)(C)[CH2][Sn]([CH3])([CH3])[CH3] | 10.6
C[S+](C)CC(=O)c1ccc([N+](=O)[O-])cc1 | 6.7

Structure (SMILES) | pKa
CC(c1ccccc1)[N+](=O)[O-] (stereo not drawn) | 7.39
CN1c2ccccc2Nc2ccc(O)cc21 | 10.1
S=c1[nH]cnc2nn[nH]c12 | 4.6
O=C(O)C1Cc2ccccc2O1 (stereo not drawn) | 3.25
CC1=NCCc2c1[nH]c1ccccc21 | 14.9
CN1C(=S)NC(=O)C12CCCCC2 | 9.25
S=C1NC(=S)C(c2ccccc2)N1 (stereo not drawn) | 8.15
Cn1c[nH+]cc1C[C@H]([NH3+])C(=O)O | 1.84
O=C(O)COc1ccc([N+](=O)[O-])cc1 | 2.89
COc1cc(C)ccc1C(=O)O | 4.38
CC(=O)c1cc(C(=O)c2ccccc2)n[nH]1 | 9.01
O=C(O)CCc1ccsc1 | 4.45
Oc1ccccc1Cl | 8.4
Cc1ccc(S(=O)(=O)NC(=O)OC(C)(C)C)cc1 | 5.05
CCC(C)CC(=O)O (stereo not drawn) | 4.84
OC(c1ccncc1)(c1ccccn1)c1ccccn1 | 13.1
Sc1cc[nH+]cc1 | 1.43
O=[N+]([O-])c1ccc2[nH]cnc2c1 | 10.6
O=N/C(=N/O)c1ccccc1 | 4.9
CCOC(=O)C(CC)C(C)=O (stereo not drawn) | 12.7
NCCc1ccc(O)cc1 | 10.8
COP(=O)([O-])NS(=O)(=O)c1ccccc1 | 6.25
C[Si](C)(CCl)CCCC(=O)O | 4.97
Cc1ccc(C(=O)O)cc1Br | 3.96
O=C(O)C[NH+](CC(=O)O)Cc1cc(Cl)cc(C[NH+](CC(=O)O)CC(=O)O)c1O | 2
COc1cc(C(N)=O)ccc1-c1nc2c(ncn2C)[nH]1 | 11.7
C[Si](C)(C)CC(=O)O | 5.22

same assay, conditions: basic group

Structure (SMILES) | pKa
Cc1cc(-c2ccccc2)n[n+](CCN2CCOCC2)c1N | 4.84
CN(C)c1ccc(/C=C/c2ccncc2)cc1 | 6.25
NNC(=O)[C@@H](N)Cc1ccccc1 | 7.06
[O-]c1cnc2ccccc2n1 | 9.1
C[NH2+]CCN | 7.49
COc1ccc2c(c1)CC(C)N2 (stereo not drawn) | 6.2
[NH3+]CCCNCCC[NH3+] | 8.08
CCCN(CCC)CC(=O)Nc1c(C)cccc1C | 7.68
CNCC/C(N)=N/O | 9.6
NCC(=O)N1CCC[C@H]1C(=O)[O-] (H-Gly-Pro-OH) | 8.49
CCc1cc(C)nnc1C | 4.73
CN(C)c1ccc(NC(=O)/C=N/O)cc1 | 4.94
Nc1cccc2[nH]c(Cc3ccccc3)nc12 | 8.6
NCC[NH2+]CCCO | 6.78
CCCCCCCCCCCCCCCCCCN | 10.6
[O-]c1nccc2cccnc12 | 12
OC[C@@H]1O[C@H](n2cnc3c([S-])ncnc32)[C@@H](O)[C@H]1O | 7.63
OC(CN1CCOCC1)CN1CCOCC1 | 6.98
N[C@H]1CCC[C@H]1C(=O)Oc1ccc([N+](=O)[O-])cc1 | 8.36
CCCNCC(=O)[O-] | 10.2
CC(C)(C)C1=CC(=C2C=CC=CC=C2)C=C(C(C)(C)C)C1=O | 4.48
C[C@]1(O)CCCC[C@@H]1N | 9.49
COc1ccc(-c2cn3ccsc3n2)c(OC)c1 | 4.67
Cc1ncc(CO)c(CO)c1O | 4.96
NC(=S)C[NH3+] | -8.39

Structure (SMILES) | pKa
CC[C@H](C(=O)[O-])[C@H](CO)Cc1cncn1C | 7.47
C/C(=N\O)NO | 4.95
O=C(CCN1CCCCC1)c1ccccc1 | 9.23
CCCCc1ccc(C(=O)[O-])nc1 | 5.7
O=P([O-])(O)C([NH2+]Cc1ccccn1)c1ccccc1O (stereo not drawn) | 3.12
CN1CC=CC1 | 9.92
O=P([O-])(O)C([NH2+]Cc1ccncc1)c1ccccc1O (stereo not drawn) | 3.15
Nc1nc2cc3c(cc2[nH]1)CCCC3 | 7.69
CCCCCCCCCCCCCCCC[NH+](CCCCCCCCCCCCCCCC)CCCn1ccnc1 | 4.4
CN1c2ccccc2Nc2ccc(O)cc21 | 1
CNC(C)Cc1ccccc1 (stereo not drawn) | 9.87
CC1=NCCc2c1[nH]c1ccccc21 | 8.99
[NH3+]c1ccc(-c2cnc(-c3ccc(Br)cc3)o2)cc1 | 0.26
S=C1NC(=S)C(c2ccccc2)N1 (stereo not drawn) | -3.16
OCC[NH+](CCO)Cc1nc2ccccc2[nH]1 | 2.15
COc1cc(NS(C)(=O)=O)ccc1-c1cn2cccnc2n1 | 4.17
O=C(c1ccccc1)N1CCNCC1 | 7.79
CC(Cc1ccccc1)N(C)CCC#N (stereo not drawn) | 6.95
CCOc1ccc(Nc2ccccc2)cc1 | 1.41
C1CCC2NCCCC2C1 (stereo not drawn) | 10.9
Cc1ccccc1/C(=N\CCCN(C)C)c1ccccc1N | 9
NC(CC(=O)[O-])c1ccccn1 (stereo not drawn) | 9.22
N[C@@H]1C[C@@H]1N | 9.04
c1ccc(-c2ccn[nH]2)nc1 | 4.46
CN(C)/N=C(\N)CC[Si](C)(C)C | 10.2

Structure (SMILES) | pKa
COc1cccc2cccnc12 | 4.88
CN(C)CCC/N=C(\c1ccccc1)c1ccccc1-c1ccccc1 | 9.2
NCCCc1ccccc1O | 9.51
N#CCN1CCCCC1 | 4.55
Cc1cc([O-])ncn1 | 9
CC1CCNC(C)(C)C1 (stereo not drawn) | 11.1
CCOC(=O)CC(NC)c1ccccc1 (stereo not drawn) | 8.23
Cc1ccc(CN)cc1N | 9.77
O=[N+]([O-])c1ccc2[nH]cnc2c1 | 3.77
CCCc1cccnn1 | 3.59
CC(C)CC(N)C(=O)[O-] (stereo not drawn) | 9.76
C#CCCCN | 10.2
NCCC[n+]1ccc2ccccc2c1 | 8.97
Cc1[nH]c2ccc(N)cc2[nH+]1 | 3.12
[NH3+]c1ccccc1-c1nc2ccccc2s1 | -1.8
CCSC(=O)c1ccc(OC)cc1 | -3.77
NCCc1ccc(O)cc1 | 9.45
CCNCCCC(=O)[O-] | 11
NCCC(=O)c1ccccc1 | 8.3
CN(C)CC(CSC#N)SC#N (stereo not drawn) | 6.1
CSc1ccc2ccccc2n1 | 3.71
NC(=O)c1c2cccc1COCCOCc1ncc([nH]1)COCCOC2 | 5.72
COc1cc(C(N)=O)ccc1-c1nc2c(ncn2C)[nH]1 | 3.8
